US11667674B2, “Antibacterial cyclic lipopeptides” (priority 2016, dated 2023)
In brackets after ≈: the same amount, converted by molar mass. Where two headings read alike, the source gives them in different places.

Experiments:
[1] = tested on: MRSA ATCC43300; experiment: Right-sided endocarditis rat model; format: in vivo, S. aureus; conditions: for Log10 (CFU/g) of vegetation / Vegetation weight: Sprague-Dawley rats, 1 time/day for 2 days, 3 animals
Protocol: Male Sprague-Dawley rats (280-300 g) were intraperitoneally anesthetized with sodium pentobarbital solution (40 mg/kg). The rat chin area was treated with 75% alcohol. The right carotid artery was exposed through an anterior incision just slight right of midline above the calvicles. Polyethylene tubing was placed over 4-4.5 cm guided wire and passed within the right carotid artery into the left ventricle until resistance was met. Cardiac pulsations of the catheter indicated proper placement of the catheter tip at the apex of the heart. 0.5 ml inoculum of the overnight cultures (ATCC43300m 3.5×10^4 c.f.u./mL) was injected through a tail vein. After 24 hours of infection, the surviving rats were randomly divided into control group and treatment group. Compound 1 and daptomycin was administered via tail vein for 2 days (1 time/day). 24 h after the last administration, the animals were anesthetized and sacrificed. Vegetations and tissue samples were excised, weighed, homogenized, serially diluted and plated on trypticase soy agar for c.f.u titres.

[2] = tested on: Clostridium difficile ATCCBAA-1382; experiment: in vitro anti-Clostridium difficile MIC, standard broth dilution method; format: cell-based; conditions: for MIC: Clostridium difficile ATCCBAA-1382; for anti-Clostridium difficile activity compared with vancomycin and daptomycin: in words, both strains of Table 3
Protocol: (§1) Anti-Clostridium difficile activity of compound 1 was tested on two strains, C. difficile BAA-1382 and […], using the standard broth dilution method as described by the Clinical Laboratory Standard Institute.

[3] = tested on: Clostridium difficile ATCC43255; experiment: as above; format: cell-based
Protocol: as §1

[4] = tested on: MRSA ATCC 33591
[5] = tested on: MRSA ATCC33591; experiment: Neutropenic mouse thigh infection model; format: in vivo, S. aureus; parameters: Δ (thigh c.f.u. versus control): unit not given here; conditions: for Thigh colony-forming units (c.f.u): neutropenic ICR mice, thighs at 24 h, X ± SD, n = 5
Protocol: Compound 1 was tested against MRSA ATCC33591 in a neutropenic mouse thigh infection model. Both female and male ICR mice were rendered neutropenic by cyclophosphamide (three consecutive doses of 150 mg per kg delivered before infection). At day 4, bacteria were resuspended in sterile saline, 0.1 ml inoculum (MRSA ATCC33591, 5.0×10^6 c.f.u/ml) was injected into the left thighs of mice. At 2 h post-infection, mice received treatment with Compound 1 at 0.63, 1.25, 2.5, 5.0 mg per kg administered in a single dose (10 ml/kg), intravenous injection (five mice per group). At 24 h post-infection, the left thighs were aseptically removed, weighed, homogenized, serially diluted and plated on trypticase soy agar for c.f.u titres.

[6] = Clostridium difficile ATCC43255
[7] = 0.63 mg/kg single i.v. dose 2 h post-infection
[8] = 1.25 mg/kg single i.v. dose 2 h post-infection
[9] = 2.50 mg/kg single i.v. dose 2 h post-infection
[10] = 5.00 mg/kg single i.v. dose 2 h post-infection

## CCCCCCCCCC(=O)N[C@@H](Cc1c[nH]c2ccccc12)C(=O)N[C@H](CC(N)=O)C(=O)N[C@@H](CC(=O)O)C(=O)N[C@@H]1C(=O)NCC(=O)N[C@@H](CCCN)C(=O)N[C@@H](CC(=O)O)C(=O)N[C@H](C)C(=O)N[C@@H](CC(=O)O)C(=O)NCC(=O)N[C@H](CO)C(=O)N[C@@H](C(C)CC(=O)O)C(=O)N[C@@H](CC(=O)c2ccccc2NC)C(=O)O[C@@H]1C (some centres unmarked) [Compound 1]
[1]; 20 mg/kg
  Δ (Log10 CFU/g of vegetation versus control): 1.78
[1]; 20 mg/kg via tail vein
  Log10 (CFU/g) of vegetation: 7.53 ± 1.08 Log10 (CFU/g)
  Vegetation weight: 0.012 ± 0.002 g
[1]; right-sided endocarditis rats
  infection of S. aureus compared with the control groups and daptomycin: significantly decrease the infection of S. aureus
[2]
  MIC: 0.5 µg/mL (≈ 0.306 µM)
  anti-Clostridium difficile activity compared with vancomycin and daptomycin: better activities than vancomycin and daptomycin
[3]; [6]
  MIC: 0.5 µg/mL (≈ 0.306 µM)
[4]
  MIC: 0.5 µg/mL (≈ 0.306 µM)
[5]; 0.63 mg/kg
  Δ (thigh c.f.u. versus control): 0.97
[5]; 1.25 mg/kg
  Δ (thigh c.f.u. versus control): 1.77
[5]; 2.50 mg/kg
  Δ (thigh c.f.u. versus control): 3.15
[5]; 5.00 mg/kg
  Δ (thigh c.f.u. versus control): 5.18
[5]; doses of 1.25 and 2.50 mg/kg, mice with thigh infected with S. aureus
  antibacterial activity compared with daptomycin: significantly better antibacterial activity
[5]; [7]
  Thigh colony-forming units (c.f.u): 7.93 ± 0.85 log(CFU/thigh)
[5]; [8]
  Thigh colony-forming units (c.f.u): 7.13 ± 0.25 log(CFU/thigh)
[5]; [9]
  Thigh colony-forming units (c.f.u): 5.75 ± 0.35 log(CFU/thigh)
[5]; [10]
  Thigh colony-forming units (c.f.u): 3.72 ± 0.35 log(CFU/thigh)

## CCCCCc1ccc(/C(C)=C/C(=O)N[C@@H](Cc2c[nH]c3ccccc23)C(=O)N[C@H](CC(N)=O)C(=O)N[C@@H](CC(=O)O)C(=O)N[C@@H]2C(=O)NCC(=O)N[C@@H](CCCN)C(=O)N[C@@H](CC(=O)O)C(=O)N[C@H](C)C(=O)N[C@@H](CC(=O)O)C(=O)NCC(=O)N[C@H](CO)C(=O)N[C@@H](C(C)CC(=O)O)C(=O)N[C@@H](CC(=O)c3ccccc3NC)C(=O)O[C@@H]2C)cc1 (some centres unmarked) [Compound 7]
[2]
  MIC: 0.25 µg/mL (≈ 0.148 µM)
  anti-Clostridium difficile activity compared with vancomycin and daptomycin: better activities than vancomycin and daptomycin
[3]; [6]
  MIC: 0.25 µg/mL (≈ 0.148 µM)

## CCCCCCCCCC(=O)N[C@@H](Cc1c[nH]c2ccccc12)C(=O)N[C@H](CC(N)=O)C(=O)N[C@@H](CC(=O)O)C(=O)N[C@@H]1C(=O)NCC(=O)N[C@@H](CCCN)C(=O)N[C@@H](CC(=O)O)C(=O)N[C@H](C)C(=O)N[C@@H](CC(=O)O)C(=O)NCC(=O)N[C@H](CO)C(=O)N[C@@H]([C@H](C)CC(=O)O)C(=O)N[C@@H](CC(=O)c2ccccc2N)C(=O)O[C@@H]1C [daptomycin, reference compound]
[1]; 40 mg/kg
  Δ (Log10 CFU/g of vegetation versus control): 0.73
[1]; 40 mg/kg via tail vein
  Log10 (CFU/g) of vegetation: 8.58 ± 0.55 Log10 (CFU/g)
  Vegetation weight: 0.007 ± 0.001 g
[2]
  MIC: 1 µg/mL (≈ 0.617 µM)
[3]; [6]
  MIC: 1 µg/mL (≈ 0.617 µM)
[4]
  MIC: 1 µg/mL (≈ 0.617 µM)
[5]; 0.63 mg/kg
  Δ (thigh c.f.u. versus control): 0.88
[5]; 1.25 mg/kg
  Δ (thigh c.f.u. versus control): 1.09
[5]; 2.50 mg/kg
  Δ (thigh c.f.u. versus control): 1.97
[5]; 5.00 mg/kg
  Δ (thigh c.f.u. versus control): 4.97
[5]; [7]
  Thigh colony-forming units (c.f.u): 8.02 ± 0.48 log(CFU/thigh)
[5]; [8]
  Thigh colony-forming units (c.f.u): 7.81 ± 0.37 log(CFU/thigh)
[5]; [9]
  Thigh colony-forming units (c.f.u): 6.93 ± 0.57 log(CFU/thigh)
[5]; [10]
  Thigh colony-forming units (c.f.u): 3.93 ± 0.84 log(CFU/thigh)

## CCCCCc1ccc(/C(C)=C/C(=O)N[C@@H](Cc2c[nH]c3ccccc23)C(=O)N[C@H](CC(N)=O)C(=O)N[C@@H](CC(=O)O)C(=O)N[C@@H]2C(=O)NCC(=O)N[C@@H](CCCN)C(=O)N[C@@H](CC(=O)O)C(=O)N[C@H](C)C(=O)N[C@@H](CC(=O)O)C(=O)NCC(=O)N[C@H](CO)C(=O)N[C@@H]([C@H](C)CC(=O)O)C(=O)N[C@@H](CC(=O)c3ccccc3N)C(=O)O[C@@H]2C)cc1 [surotomycin, reference compound]
[2]
  MIC: 0.5 µg/mL (≈ 0.297 µM)
[3]; [6]
  MIC: 0.5 µg/mL (≈ 0.297 µM)

## CN[C@H](CC(C)C)C(=O)N[C@H]1C(=O)N[C@@H](CC(N)=O)C(=O)N[C@H]2C(=O)N[C@H]3C(=O)N[C@H](C(=O)N[C@H](C(=O)O)c4cc(O)cc(O)c4-c4cc3ccc4O)[C@H](O)c3ccc(c(Cl)c3)Oc3cc2cc(c3O[C@@H]2O[C@H](CO)[C@@H](O)[C@H](O)[C@H]2O[C@H]2C[C@](C)(N)[C@H](O)[C@H](C)O2)Oc2ccc(cc2Cl)[C@H]1O [vancomycin, reference compound]
[2]; Clostridioides difficile, ATCCBAA1382, read-out: MIC
  MIC: 1 µg/mL (≈ 0.69 µM)
[3]; Clostridioides difficile, ATCC43255
  MIC: 1 µg/mL (≈ 0.69 µM)
